Measurements taken from patent publication US20120028897A1, “METHODS AND COMPOSITIONS FOR THE TREATMENT OF FLUID RETENTION DISORDERS” (priority 2008, published 2012).
Read-outs that look alike come from different tables or passages of the source. Bridges are numbered along the chain shown (N, C = ends). Where no end group is shown, it is not given here.

How the values were obtained:
[1] = 37° C., cited from earlier work
[2] = molecular target: guanylate cyclase C (GC-C) receptor (UniProt P25092 24-1073, limits assumed); assay: cell-based or functional assay
Sequence of guanylate cyclase C (GC-C) receptor (P25092 24-1073 limits assumed): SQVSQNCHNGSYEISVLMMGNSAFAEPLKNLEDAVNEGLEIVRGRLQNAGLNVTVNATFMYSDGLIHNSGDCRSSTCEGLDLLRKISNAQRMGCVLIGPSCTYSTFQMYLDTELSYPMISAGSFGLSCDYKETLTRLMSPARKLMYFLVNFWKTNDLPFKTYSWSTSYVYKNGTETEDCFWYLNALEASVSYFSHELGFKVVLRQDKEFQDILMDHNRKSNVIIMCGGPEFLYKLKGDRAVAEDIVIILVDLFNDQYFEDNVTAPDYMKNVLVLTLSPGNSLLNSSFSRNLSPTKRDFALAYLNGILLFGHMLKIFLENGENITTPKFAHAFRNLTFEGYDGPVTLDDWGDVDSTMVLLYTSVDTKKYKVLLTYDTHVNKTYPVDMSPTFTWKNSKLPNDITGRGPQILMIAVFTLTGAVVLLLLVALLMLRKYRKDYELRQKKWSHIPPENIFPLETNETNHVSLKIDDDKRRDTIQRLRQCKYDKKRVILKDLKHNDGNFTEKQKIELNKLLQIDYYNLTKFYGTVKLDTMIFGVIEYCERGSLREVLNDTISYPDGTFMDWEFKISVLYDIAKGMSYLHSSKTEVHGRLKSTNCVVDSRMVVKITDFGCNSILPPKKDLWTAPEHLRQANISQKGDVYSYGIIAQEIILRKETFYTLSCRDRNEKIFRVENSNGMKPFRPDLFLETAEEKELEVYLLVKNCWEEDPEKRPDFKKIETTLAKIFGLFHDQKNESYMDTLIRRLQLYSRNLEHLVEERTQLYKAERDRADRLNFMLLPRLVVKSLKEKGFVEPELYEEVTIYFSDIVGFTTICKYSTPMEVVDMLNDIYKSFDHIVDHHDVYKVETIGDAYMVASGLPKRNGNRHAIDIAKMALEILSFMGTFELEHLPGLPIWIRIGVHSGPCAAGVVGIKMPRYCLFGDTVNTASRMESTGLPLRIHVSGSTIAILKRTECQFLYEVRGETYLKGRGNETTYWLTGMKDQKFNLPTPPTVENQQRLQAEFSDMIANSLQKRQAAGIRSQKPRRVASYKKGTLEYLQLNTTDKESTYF

Molecule | half life of each stereoisomer (A/B interconversion) [1] | half life of each stereoisomer (A/B interconversion) ([1]; listed as human Ugn) | cyclic GMP synthesis in T84 cells, potency against huUgnA [2]
CC(C)C[C@H](NC(=O)[C@@H]1CSSC[C@@H]2NC(=O)[C@H](CC(C)C)NC(=O)[C@H](CCC(=O)O)NC(=O)[C@@H](NC(=O)[C@H](CC(=O)O)NC(=O)[C@H](CC(=O)O)NC(=O)[C@@H](N)CC(N)=O)CSSC[C@H](NC(=O)[C@H](C)NC(=O)[C@H](C(C)C)NC(=O)[C@H](CC(N)=O)NC(=O)[C@H](C(C)C)NC2=O)C(=O)N[C@@H]([C@@H](C)O)C(=O)NCC(=O)N1)C(=O)O [huUgn, Asn Asp Asp Cys Glu Leu Cys Val Asn Val Ala Cys Thr Gly Cys Leu] | approximately 2 days | about 2 days | –
NDDCELCVNVACTGCL (disulfide 4-12, 7-15) [Human UgnB (B isoform of human uroguanylin)] | – | – | > 100 fold less potent than huUgnA
